In patent EP4537815A1, “COMPOSITION COMPRISING A LASSO PEPTIDE […] A PHARMACEUTICALLY ACCEPTABLE NANOEMULSION” (priority 2023, dated 2025):
Entries after “also recorded” stand apart in the source; their conditions may differ. Where a SMILES comes first, the peptide text is derived from it. Bridges are numbered along the chain shown (N, C = ends).

Tests used:
[1] = test system: E. faecalis V583, E. faecium Bi21, E. faecium Bi22; assay: In vitro bacterial growth in the presence of the lasso peptide alone; format: cell-based, Enterococcus
Protocol: (§1) An evaluation of bacterial growth was performed in vitro to assess the bacterial response to either vancomycin or bacitracin, in the absence or in the presence of either sviceucin or siamycin I.
(§2) Each strain was cultured at 37 °C in M17 medium (Terzaghi and Sandine 1975) supplemented with 0.5 % (weight/volume) glucose (GM17 medium). Overnight cultures are grown in GM17 broth and are used to inoculate the cultures for MIC measurement.
(§3) Lyophilized lasso peptides were solubilized first at 800 µM in a 1:1 solution of sterilized pure water and methanol. This stock is used for subsequent dilutions in GM17.
(§4) The lasso peptides (either siamycin I or sviceucin) were added for the relevant conditions at a final concentration of 10 µM, 5 µM or 2.5 µM. Bacterial strains from overnight cultures were added with an inoculum of 5 x 10^5 CFU/mL. The MIC corresponds to the lowest concentration in the wells where no growth is observed.

[2] = test system: E. faecium Bi21 (exhibiting VanA resistance), E. faecium Bi22 (exhibiting VanA resistance); assay: Vancomycin MIC by microdilution (CLSI) in GM17, VanA-resistant strains, with or without lasso peptide; format: cell-based
Protocol: as §1, §2, §3
(§5) The measurement of the minimal inhibitory concentration (MIC) of antibiotic (either vancomycin or bacitracin) was determined by the microdilution method in accordance with the guidelines of the Clinical and Laboratory Standards Institute (CLSI 2012), with GM17 medium used as a growth medium. Subsequent 2-fold serial dilutions of the antibiotic (either vancomycin or bacitracin) were performed to obtain concentrations ranging from 0.5 to 512 µg/mL.
as §4, with “observed. […]” for “observed.”

[3] = test system: bacitracin resistant Gram-positive bacteria belonging to the Enterococcus genus; assay: Bacitracin MIC by microdilution (CLSI) in GM17, with or without lasso peptide; format: cell-based
Protocol: as §1, §2, §3, §5
as §4, with “observed. […]” for “observed.”

[4] = test system: E. faecalis V583 (exhibiting VanB resistance); assay: Vancomycin MIC by microdilution (CLSI) in GM17, VanB-resistant strain, with or without lasso peptide; format: cell-based; conditions: VanB-type
Protocol: as §1, §2, §3, §5
as §4, with “observed. […]” for “observed.”

Compound | Growth in the presence of the lasso peptide alone ([1]; lasso peptide at 2.5 µM) | Growth in the presence of the lasso peptide alone ([1]; lasso peptide at 5 µM) | Vancomycin MIC (VanA-resistant strains) ([2]; in the presence of the lasso peptide at 5 µM) [µg/mL] | effect on vancomycin resistance ([2]; lasso peptide at 2.5 µM combined with vancomycin, VanA-type) | effect on bacitracin resistance ([3]; lasso peptide at 2.5 µM combined with bacitracin) | effect on vancomycin resistance ([4]; lasso peptide at 2.5 µM combined with vancomycin) | effect on bacitracin resistance ([3]; lasso peptide at 10 µM combined with bacitracin) | effect on vancomycin resistance ([4]; lasso peptide at 10 µM combined with vancomycin)
CC[C@H](C)[C@@H]1NC(=O)[C@H](C)NC(=O)[C@H](Cc2ccc(O)cc2)NC(=O)CNC(=O)[C@@H]2CSSC[C@@H]3NC(=O)C[C@H](NC(=O)[C@H](CC(N)=O)NC(=O)[C@H](CSSC[C@@H](C(=O)N[C@@H](Cc4ccccc4)C(=O)N[C@@H](Cc4c[nH]c5ccccc45)C(=O)O)NC(=O)[C@H](C(C)C)NC1=O)NC(=O)[C@H](CO)NC(=O)CNC(=O)[C@H](C(C)C)NC(=O)CNC(=O)[C@H](CC(C)C)NC3=O)C(=O)N[C@@H](Cc1ccccc1)C(=O)N[C@@H](C)C(=O)NCC(=O)N2 [Siamycin I, siamycin I] (CLGVGSCNDFAGCGYAIVCFW-OH; disulfide 1-13, 7-19 (inferred); lactam N-9 (inferred); C-terminus assumed) | Growth slowed down but not inhibited | exhibits a growth inhibition activity; also recorded: Growth inhibited | 0 | reverses vancomycin resistance | reverses bacitracin resistance | reverses vancomycin resistance |  | 
CC[C@H](C)[C@@H]1NC(=O)[C@H](Cc2c[nH]c3ccccc23)NC(=O)[C@H](C)NC(=O)[C@H]([C@@H](C)O)NC(=O)CNC(=O)[C@@H]2CSSC[C@@H]3NC(=O)C[C@H](NC(=O)[C@H]([C@@H](C)O)NC(=O)[C@H](CSSC[C@@H](C(=O)N[C@H](C(=O)O)C(C)C)NC1=O)NC(=O)[C@H](CC(=O)O)NC(=O)CNC(=O)CNC(=O)[C@H](Cc1c[nH]c4ccccc14)NC(=O)[C@H](C(C)C)NC3=O)C(=O)N[C@@H](Cc1ccccc1)C(=O)N[C@@H](CC(C)C)C(=O)NCC(=O)N2 [Sviceucin, sviceucin] (CVWGGDCTDFLGCGTAWICV-OH; disulfide 1-13, 7-19 (inferred); lactam N-9 (inferred); C-terminus assumed) |  |  |  |  |  |  | reverses bacitracin resistance | reverses vancomycin resistance
